Assay results: patent US20070037800A1, “Method of treating neurological disorders using clotrimazole and derivatives thereof” (EnVivo Pharmaceuticals, Inc., priority 2005, published 2007)
Values joined by “and” are separate entries in the source; they are usually repeats but may differ in a detail not shown here. Equal values may be shown once.

How the values were obtained:
R6/2 transgenic mice = assay: Body weight in R6/2 transgenic mouse model of Huntington's disease; assay type: in vivo
Procedure: The rotarod test and body weight measurements were used to assess the therapeutic effects of clotrimazole in R6/2 transgenic mice. R6/2 and WT male mice at 4 weeks of age were trained 3 consecutive days on the accelerating rotarod. Each training day consisted of four sessions. After the training was complete, the animals were reassigned to new groups to create statistically homogenous cohorts. At 5 weeks of age, animals (n=10 per group) were dosed twice daily, intraperitoneally (IP) with clotrimazole at either 2 mg/kg or 10 mg/kg (equal to 4 and 20 mg/kg per day). Rotarod testing was performed at 6, 8, 10, and 12 weeks of age as described above. Body weights were collected every week.

[1] = test system: HD model flies (elav-GAL4 UAS-htt128Q); assay: Assay of locomotor activity (climbing speed) using the transgenic Drosophila HD model; assay type: in vivo; set-up: Early Speed Effect Size, Summary / Late Speed Effect Size, Summary / Early Speed Effect Size / Late Speed Effect Size / Early Speed Adj Value / Late Speed Adj Value / Early Speed Effect Size, combined campaigns / Late Speed Effect Size, combined campaigns: unit not given here; details: for Early Speed Effect Size, combined campaigns / Early Speed Percent TSA, combined campaigns / Early Speed Effect Size / Early Speed Adj Value / Early Speed Percent TSA: days 1 to 7; for Early Speed Effect Size, combined campaigns / Early Speed Percent TSA, combined campaigns / Late Speed Effect Size, combined campaigns / Late Speed Percent TSA, combined campaigns: drawing 84; for Late Speed Effect Size, combined campaigns / Late Speed Percent TSA, combined campaigns / Late Speed Percent TSA / Late Speed Adj Value / Late Speed Effect Size: days 8 to 10; for Early Speed Effect Size, Summary / Early Speed Percent TSA, Summary: days 1-7; for Late Speed Effect Size, Summary / Late Speed Percent TSA, Summary: days 8-10; for Early Speed Effect Size: food conc 50 (unit not printed; b38: μM); for Early Speed Effect Size / Late Speed Effect Size: vs DMSO carrier; for Early Speed Effect Size / Early Speed Adj Value / Early Speed Percent TSA / Late Speed Percent TSA / Late Speed Adj Value / Late Speed Effect Size: single campaigns; for Early Speed Percent TSA: effect size as percentage of positive control TSA; for Late Speed Percent TSA: effect size as percentage of TSA
Procedure: Female “activator” or “driver” flies were engineered to contain the neuronal specific drivers elav-GAL4 or nirvana-GAL4 in a heat shock-hid Y (phs-hidY or HS-hid+ on Y chomosome) background (Starz-Gaiano et al., 2001). The hid gene is a pro-apoptotic gene, which is expressed in this line by a heat inducible promoter. These flies can be heat shocked in bottles twice over 2 days for 2 hours to kill male larvae and thereby produce massive numbers of elav-GAL4 or nirvana-GAL4 virgin females.
For the mass production of males (either UAS-htt128Q[F27B]/UAS-htt128Q[F27B], the disease transgenes were moved into lines that contain an attached X-chromosome with the same phs-hid element (X^XPhs-hidY) used above. In this scheme the hid gene is present only in female flies and therefore is used to produce large numbers of male flies by heat shock. The massive collection of virgin female elav-GAL4 flies are crossed with the massive collection of males that contain the silent disease-transgene. Their progeny, the F1 generation, are the “assay flies” (e.g., elav-GAL4UAS-htt128Q[F27B]). These assay flies are robotically distributed into drugged assay vials.
The HD Drosophila model express exons 1 to 4 of the human huntingtin gene with 128Q repeats in exon 1. The construct was cloned into the Drosophila transformation vector, pUAST. These were then crossed to GAL4 driver lines that direct expression either to the eye (GMR-GAL4 promoter) or to neurons (elav-GAL4 promoter). […] Progressive degeneration of the photoreceptors was observed after several days of adult life. The properties of the HD128Q flies were consistent with those reported by others for two other strains in which exon-1 containing expanded repeats was expressed in the eye (Jackson et al., 1998; Steffan et al., 2001—US20040142859). To test the effects on motor function of the HD mutation, HD128Q lines were examined in which the transgene was expressed in all neurons. Motor function was assayed by tapping flies in a vial to the bottom and measuring the number of flies that are able to climb to a specified height within a specific length of time. When tapped to the bottom of a vial, wild-type flies rapidly climb to the top, where most of them remain. […] The decline in motor performance was progressive, leading to early death. […] The HD128Q model thus has a functional deficit that in its phenotypic and neuropathological characteristics appears to be related to that seen in the human disease. Moreover, as the deficit is quantifiable and reproducible, it is suitable for automated high-throughput screening.
Standard environmental conditions were followed to establish that different metrics detect differences between disease and control flies. A comparison of compound-treated HD flies and untreated HD flies was also included. The positive control compound tested was the Histone Deacetylase (HDAC) inhibitor Trichostatin-A (TSA).
In an assay run (typically corresponding to one day of an entire multi-day assay) the following process was followed. Each tube was dropped onto a surface, causing the flies to fall to the bottom of the tube and be subjected to impact shock stimulation. Their immediate negative geotaxis response to that event was thereafter captured in a 7.5 second movie. For each tube, this step was repeated five times, giving a total of five repeat videos per tube and run. The raw data for each video were analyzed and trajectories following the movements of individual flies in a tube were generated. The method for analyzing fly trajectories is described in published U.S. Patent Application 2004/0076318A1, which is hereby incorporated by reference in its entirety. The trajectories consisted of a list of x- and y-coordinates mapping out the positions of all the flies in the video, as well as measurements of size, orientation, length and width of the flies, with one list entry for every frame from when the fly started moving in one frame until it stopped in another. […]

[2] = conc 50, campaigns drawing 83, drawing 85
[3] = conc 100, campaigns drawing 74, drawing 76, drawing 83, drawing 89
[4] = conc 150, campaigns drawing 83, drawing 86, drawing 88, drawing 89
[5] = dose 50, weighted average of campaigns drawing 83, drawing 84 (Table 1)
[6] = dose 100, weighted average of campaigns drawing 74, drawing 76, drawing 83, drawing 84 (Table 1)
[7] = dose 150, weighted average of campaigns drawing 83, drawing 84 (Table 1)
[8] = food conc 50, listed as CLOTRIMAZOLE

Clc1ccccc1C(c1ccccc1)(c1ccccc1)n1ccnc1 [clotrimazole]
Body weight compared to vehicle-treated R6/2 mice (R6/2 transgenic mice; 4 mg/kg IP-BID, 12 week of age, F test ANOVA): maintained a higher body weight
Body weight effect (R6/2 transgenic mice; 20 mg/kg IP-BID, any time point tested): did not have a statistically significant effect
Weight in vivo (R6/2 transgenic mice; low dose of 4 mg/kg/day, preliminary data): positively affects
Early Speed Effect Size, combined campaigns [1, 2]: 0.867
Early Speed Percent TSA, combined campaigns [1, 2]: 37.7%
Late Speed Effect Size, combined campaigns [1, 2]: 1.076
Late Speed Percent TSA, combined campaigns [1, 2]: 36.3%
Early Speed Effect Size, combined campaigns [1, 3]: 0.89
Early Speed Percent TSA, combined campaigns [1, 3]: 32%
Late Speed Effect Size, combined campaigns [1, 3]: 1.372
Late Speed Percent TSA, combined campaigns [1, 3]: 36.8%
Early Speed Effect Size, combined campaigns [1, 4]: 1.211
Early Speed Percent TSA, combined campaigns [1, 4]: 43.8%
Late Speed Effect Size, combined campaigns [1, 4]: 1.664
Late Speed Percent TSA, combined campaigns [1, 4]: 42.8%
Early Speed Effect Size, Summary [1, 5]: 0.8
Early Speed Percent TSA, Summary [1, 5]: 25.9%
Late Speed Effect Size, Summary [1, 5]: 1.43
Late Speed Percent TSA, Summary [1, 5]: 35.7%
Early Speed Effect Size, Summary [1, 6]: 1.13
Early Speed Percent TSA, Summary [1, 6]: 39.6%
Late Speed Effect Size, Summary [1, 6]: 1.42
Late Speed Percent TSA, Summary [1, 6]: 39.6%
Early Speed Effect Size, Summary [1, 7]: 1.35
Early Speed Percent TSA, Summary [1, 7]: 41.6%
Late Speed Effect Size, Summary [1, 7]: 1.8
Late Speed Percent TSA, Summary [1, 7]: 42.7%
Climbing assay, dose dependence ([1]; doses 50, 100, 150 (Table 1)): dose-dependent effect
Early Speed Effect Size [1]: 0.73 and 0.88
Early Speed Effect Size ([1]; listed as CLOTRIMAZOLE): 0.725 and 0.882 and 0.932
Early Speed Adj Value ([1]; food conc 50 (μM)): 11.2 and 10.98 and 10.15
Early Speed Percent TSA ([1]; food conc 50): 26.3% and 25.4%
Early Speed Percent TSA [1, 8]: 26.3% and 25.4% and 48.8%
Late Speed Percent TSA ([1]; food conc 50): 38.8% and 31.5%
Late Speed Percent TSA [1, 8]: 38.8% and 31.5% and 36.8%
Late Speed Adj Value ([1]; food conc 50): 6.587 and 5.802 and 6.193
Late Speed Effect Size ([1]; food conc 50): 1.46 and 1.39
Late Speed Effect Size [1, 8]: 1.458 and 1.39 and 0.767
Early Speed Adj Value ([1]; food conc 100 (μM)): 10.12 and 11.32 and 11.4873 and 10.63 and 10.84
Late Speed Adj Value ([1]; food conc 100): 5.805 and 5.534 and 6.208 and 6.981 and 6.155
Early Speed Adj Value ([1]; food conc 150 (unit not given)): 11.15 and 11.68 and 10.57 and 10.74 and 11.13
Late Speed Adj Value ([1]; food conc 150): 6.189 and 6.817 and 5.855 and 5.983 and 6.595
Effect in Drosophila model of HD ([1]; vs carrier controls, metrics early speed (days 1-7) and late speed (days 8-10)): reproducible positive effects
